The subject of series [1] is Meloidogyne incognita. Description: M. incognita miniaturized greenhouse assay on cucumber seedlings. It counts as in vivo. Particulars: 1 ppm. As for the experimental part: The test compound is dissolved in an acetone solution and added to water. A sprouted cucumber seedling is placed into a vial with dry sand and the water-chemical solution is added immediately. Twenty four hours later Meloidogyne incognita eggs are added to the vials and 10 to 12 days later the roots are evaluated for nematode galling.
Cucumber seeds are sprouted for 3 days in moist paper towels. Acceptable sprouts should be 3 to 4 cm long with several lateral roots just emerging. Stock solutions of chemistry are prepared in a mixture of acetone and Triton X100 (412 mg in 500 mL) to a final concentration of 5 mg/mL. The chemical stock solution is then added to 10 mL deionized water plus 0.015% Triton X100 and mixed thoroughly. This is enough to test each condition in triplicate. Ten mL dry sand is added to each vial. At this time the solubility of the chemistry is visually determined and recorded as either ppt (large precipitates) or cloudy (fine precipitates). Seedlings are planted by tilting the vial and laying the seedling in the correct orientation so that the cotyledons are just above the sand and then tilting back to cover the radicles with sand. 3.3 ml water/chemical mix is added to each vial and the vials placed in racks under fluorescent light banks. The vials are inoculated two days after planting by adding 500 vermiform M. incognita eggs to each vial in 50 uL of deionized or spring water. The vials are then kept under the fluorescent lamps at ambient room temperature and watered as needed with 1mL deionized water, usually twice during duration of test. Harvest of the cucumber plants is done 10 to 12 days after inoculation by washing sand off the roots. A root gall rating and visual phytotoxicity rating is assigned using the following scales: Gall rating scale (Gall: % root mass galled): 0=0-5%; 1=6-20%; 2=21-50%; and 3=51-100%. The average of the triplicate gall rating is then calculated: green=0.00-0.33 (no galls); yellow=0.67-1.33 (mild galling); orange=1.67-2.33 (moderate galling); red=2.67-3.00 (severe galling). Visual phytotoxicity scale is also assigned (Vis. tox; visual reduction in root mass compared to the control): rs1=mild stunting; rs2=moderate stunting; rs3=severe stunting.

Series [2] relates to soybean cyst nematode (SCN). Nature of the series: SCN greenhouse sand assay on soybean plants. The conditions noted are these: Glycine max, 672 h, read-out: percent control (cyst number reduction) relative to the control blank treatment. It counts as in vivo. From the text: Soybeans seeds are planted in 100% sand in two inch square plastic pots. Chemical treatment is done when the soybeans show the first trifoliate beginning to emerge about 10 to 12 days after planting. At least four hours after chemical application the nematode soybean cyst nematode (SCN) eggs are applied and 28 days after the egg inoculation the test is harvested.
(§1) One milligram of chemistry per four pots is equal to one kilogram per hectare of chemical. A standard test uses four replications. For rates above 2 kg/ha, the desired amount of chemical is weighed into a 30 ml vial (example: 8 kg/ha rate =8 mg chemical in 30 ml vial). The chemical is dissolved in 2 ml of appropriate solvent, generally acetone. For rates below 2 kg/ha, 2 milligrams of chemistry is weighed into the vial and dissolved in 2 ml of the solvent. The appropriate amount of chemical concentrate is then pipetted into a separate 30 ml vial and solvent is added to bring the volume to 2 ml (example 0.5 kg/ha=0.5 ml of concentrate+1.5 ml solvent). Each dissolved concentrate is then brought to a total of 20 milliliters using 0.05% Triton X 100 surfactant solution.
(§2) Pots to be treated are moist but not saturated. To each of four pots, five milliliters of the appropriate chemical solution is pipetted to the media surface making sure to avoid contact with the base of the plant. Immediately following chemical application, using a mist nozzle, the pot surface is wetted sufficiently to saturate the pot watering in the chemistry. The chemical application is done in the morning.
(§3) Nematode eggs, either SCN or RKN, are added to distilled water to create a concentration of 1000 vermiform eggs […]. At least four hours after chemical treatment the eggs are applied to the treated pots plus non-treated check plants. A small hole about 1 cm deep is punched into the pot surface. One milliliter of the nematode egg slurry is pipetted into the hole. Immediately afterwards the hole is gently covered. Watering of the test plants is then restricted to only water as needed to prevent wilt for a period of 24 hours. After the 24 hour restricted watering, normal sub-irrigation watering is done for the duration of the test.

The format of series [3] is in vivo. As for the experimental part: Acute oral toxicity testing was performed in mice in accordance with test method P203.UDP, as administered by Eurofins/Product Safety Laboratories (Dayton, New Jersey). CD-1/Swiss derived albino mice were obtained and group housed in suspended solid bottom caging. The mice were fed rodent chow and filtered tap water was supplied ad libitum. Following acclimation to the laboratory setting, a group of animals was fasted overnight by removing food from the cages. After the fasting period, three female mice were selected based on vitality and initial body weights. The individual compound doses were calculated from these body weights.
The test substance was prepared as a 1% (50 mg/kg) or 5% (500 mg/kg) weight to weight (w/w) mixture in a 0.5% w/w solution of carboxymethylcellulose (CMC) in distilled water. A tissue homogenizer was used to create a homogeneous mixture. A dose of 50 or 500 mg/kg was administered to three healthy mice per dose level by oral intubation using a ball-tipped gavage needle attached to a syringe. After administration, the animals were returned to their cages, and feed was replaced immediately after dosing.
Body weights were recorded prior to initiation and on Days 7 and 14 or a soon as possible after death.

The subject of series [4] is root knot nematode. Description: Pre-plant incorporated (PPI) greenhouse test of root knot nematode on cucumber plants. It counts as in vivo. The conditions noted are these: for pest or weed control at 4000 g/ha: 4 kg/ha, read-out: percent control (galling reduction), 4 kg/ha rate; for pest or weed control at 8000 g/ha: 8 ka/ha, read-out: percent control (galling reduction), 8 ka/ha rate. From the text:
The PPI test examines the effect of pre-incorporation of compounds in soil and longer aging to simulate in furrow methods of nematicide application in the field. The PPI test exposes compounds to a higher volume of soil and drying which can result in more severe soil binding. Compounds are also aged for longer periods which can lead to more extensive biotic and abiotic degradation further limiting activity.
The chemically treated soil (sandy soil mix) for all treatment days (e.g., 7 days, 14 days, 21 days) treatments is potted into their appropriate pots. On the same day the 7 day treatment pots are seeded. One week later eggs are applied and 14 days after egg application the test is harvested. The 14 day treatments are planted 7 days after the first planting. The 14 day planting and 7 day inoculation happen on the same day. One week later the 14 day treatments are inoculated with eggs. These are harvested 14 days after the inoculation. The 21 day treatments are planted 14 days after the first planting. The 14 day inoculation and 21 day planting are done on the same day. One week later the 21 day plants are inoculated with eggs. The 7 day treatment is harvested the same day as the 21 day inoculation. Fourteen days after inoculation the 21 day plants are harvested.
For each compound a stock is prepared using 4 mg material in 4 ml of acetone. The soil is mixed by placing 80 ml of field soil and 320 ml of sand in a plastic bag and mixing well. The formulation for treatment is done by adding 2.13 ml (8 kg/ha rate), 1.06 ml (4 kg/ha rate) or 0.53 ml (2 kg/ha rate) to a vial and raising it with 10 ml in 0.05% X100. Soil is then treated by adding the entire 10 ml to the 400 ml of mix in the bag. The treated soil is immediately mixed well in the sealed bag to distribute the compound evenly. Approximately 95 ml is used to fill each 2-inch square pot up to the top with some soil compression and flattening. For each compound and for the control treatments 4 pots are filled. All pots are watered until moist but with no run-out through the bottom.
The PPI test simulates 8, 4 and 2 kg/ha rates incorporated 15 cm deep in the field and is equivalent to the 2, 1 and 0.5 kg/ha drench application rates in the standard 2-inch pot cucumber greenhouse assay.

For series [5], the system named is Meloidogyne incognita. Description: Fall nematicidal field test on squash.
Excerpt: The soil was a native prairie/pasture covering silty clay loam soil. […] Total volume of each hole was about 1.2 cubic feet. […] Holes were filled and then re-filled 5 days later after settling. […] Organic matter was 0.2% and pH was 6.8.
Treatments were arranged in a block design with the blocks laid out perpendicular to the primary slope and parallel to secondary slope. There are 7 inoculated controls and 5 non-inoculated controls and the distributions of disease severity appeared independent of location.
The resultant mix is the same as used in the standard greenhouse assays (10% acetone, 0.05% X100). The oxamyl treatments were prepared from Vydate 2L formulated the same way. The 500 ml was placed in a watering can and the entire volume was evenly sprinkled over the surface of the plot. No runoff occurred and pooling, if any, was short lived. The final drench volume was 0.58 ml/cm^2, compared to 0.2 ml/cm^2 used in our greenhouse, however the microplots are much deeper so the drench volume applied per soil volume treated is roughly the same.
Meloidogyne incognita eggs were harvested over a two week period and stored at approximately 5° C. until needed. A stock of 5.6 million vermiform eggs was adjusted to 9000/m1 in 620 ml. One day after treatment, two holes were made in each plot about 7 cm apart and equidistant from the squash plants. Five ml of egg suspension was pipetted into each hole, which was then sealed and the plot lightly watered. A total of 90,000 vermiform eggs were added to each plot.
The first root evaluation was at 28 DAT. The tops were cut off and weighed immediately in the field, and the roots were carefully dug out so as not to disturb the remaining plant.
Series [6] deals with root knot nematode (RKN). Description: RKN greenhouse soil assay on cucumber plants. It counts as in vivo. The conditions noted are these: for percent control (galling reduction), Acetone 1 mg/kg: Acetone formulation (10% acetone in 0.05% Triton X 100).
Excerpt: Cucumber seeds are planted in a sandy soil mixture in two inch square plastic pots. When the cotyledons are fully opened and just as the first leaf begins to emerge, usually 7 days after planting, chemistry for the 7 day treatment is applied. One week later the chemistry for the 0 day treatment is applied. Separate plants are used for each application. The plants are generally in the 1-2 leaf stage now. At least four hours after the chemistry application the pots are inoculated with root knot nematode (RKN) eggs. Plants are rated for galling 14 days after the egg inoculation.
as §1, §2, §3

Series [7] has as its system root knot nematode (RKN). Description: RKN greenhouse soil assay on cucumber plants. It counts as in vivo. The conditions noted are these: Radex emulsifiable concentrate formulation (6.25% active ingredient).
Series [8] relates to C. elegans. Description: Three day C. elegans well assay. Particulars: Caenorhabditis elegans. It counts as in vivo. The protocol:
Various compounds were tested for nematicidal activity against C. elegans using contact assays in wells. The assays were performed as described below. The test compounds were solubilized in DMSO at 10 mg/ml to create 100× stock solutions. A dilution series was created by diluting the stock solution with DMSO. For each well assay 4 ul of the appropriate dilution is added to a well of a test plate. A 400 ul aliquot of bacterial stock (in M9 buffer with ampicillin and nystatin) are added to each well of the test plate. Worms are added and the test plate placed on a rotary shaker and held at 20° C. Worms are examined and scored at 4 hrs, 24 hrs, 48 hrs and 72 hours. L1 worms and L4 worms were used in the assay. L1 worms are prepared by plating eggs on a plate without a bacterial feeding layer. The eggs hatch and arrest at the L1 stage. This L1 stage population is then used to create a stock for the experiments. To create an L4 stage stock a small number of worms are taken from an overgrown and starved plate of worms and seeded on a plate with a bacterial feeder layer. A 25 ul aliquot of worms is added to each well in the assay.

Setting [9] is: 504 h, twenty one day pre-plant incorporated.
The mark [10] stands for this setting: 336 h, fourteen day pre-plant incorporated, test a.
The mark [11] stands for this setting: fourteen day pre-plant incorporated, test a.

Each structure is given as a SMILES string. Values after ≈ are worked out from the molar mass of the structure shown. Where two headings read alike, the source gives them in different places. Marks after values point to notes of the source that are not given here.

As a reminder, the EC50 is the concentration at which the effect is half-maximal.

As for `Brc1ccc(-c2cnc(-c3cccs3)o2)cc1` [compound 4776], in series [1] (Table 1C test a), the “1 ppm gall rating” value is recorded as 1 (1=6-20%). For the same compound, in series [1] (Table 1C test c), the “1 ppm gall rating” value was 1 (1=6-20%). For the same compound, the pest or weed control at 500 g/ha in series [2] (0.5 kg/ha, test c) was determined as 78%. In addition, in series [2] (1 kg/ha, test c), the pest or weed control at 1000 g/ha is 89%. In addition, in series [2] (2 kg/ha, test a), the pest or weed control at 2000 g/ha turned out to be 99%. For the same compound, the “acute oral toxicity: mortality and signs” value in series [3] (500 mg/kg oral, three female mice, observed up to 14 days) is listed as “two animals died within three days”. For the same compound, the oral toxicity entry in series [3] (mice, estimate based on the 50 and 500 mg/kg studies) was “lower than 500 mg/kg”. Moreover, in series [4] (setting [9]), the pest or weed control at 4000 g/ha was 50% and the pest or weed control at 8000 g/ha came out at 80%. In addition, in series [5] (2 kg ai/ha, squash), the “RW28 root weight at 28 days after treatment” value was 7.5, the “RW43 root weight at 43 days after treatment” value is 13.0 and the “TW28 top weight at 28 days after treatment” value amounted to 250.8. Further, the “control of root galling compared with oxamyl at an equivalent rate” value in series [5] (both the 28 day and the 43 day time point) is recorded as “statistically better than oxamyl”.

For the compound `Brc1ccc(-c2noc(-c3cccs3)n2)cc1` [compound 1846], the “percent control (galling reduction), Acetone 1 mg/kg” value in series [6] was 88%. Besides, in series [7], the “percent control (galling reduction), Radex 1 mg/kg” value came to 86%.

In the case of `Brc1ccc(-c2noc(-c3ccco3)n2)cc1` [compound 5467], the “percent control (galling reduction), Acetone 1 mg/kg” value in series [6] is recorded as 73%. The pest or weed control at 4000 g/ha in series [4] (setting [10]) worked out at 76%. Further, in series [4] (setting [11]), the “percent control (galling reduction), 2 kg/ha rate” value is 71^a percent and the pest or weed control at 8000 g/ha is 100%. Further, in series [7], the “percent control (galling reduction), Radex 1 mg/kg” value was found to be 88%.

Regarding `Cc1cc(Br)ccc1-c1noc(-c2ccco2)n1` [compound 5825], in series [6] (0 day treatment, 0.1 kg/ha, test a), the “percent control (galling reduction) relative to the control blank treatment” value is 50^a percent. Also, the “percent control (galling reduction), Acetone 1 mg/kg” value in series [6] is recorded as 96%. In addition, the EC50 in series [8] (24 h, L1 larvae, one day of exposure, read-out: EC50 L1 1D) was 0.4 µg/mL (≈ 1.31 µM); in series [8] (24 h, L4 larvae, one day of exposure, read-out: EC50 L4 1D), 1.6 µg/mL (≈ 5.24 µM); in series [8] (48 h, L1 larvae, two days of exposure, read-out: EC50 L1 2D), 0.4 µg/mL (≈ 1.31 µM); in series [8] (48 h, L4 larvae, two days of exposure, read-out: EC50 L4 2D) it was 1.6 µg/mL (≈ 5.24 µM); in series [8] (72 h, L1 larvae, three days of exposure, read-out: EC50 L1 3D) it was 0.4 µg/mL (≈ 1.31 µM); in series [8] (72 h, L4 larvae, three days, effects on the second generation larvae, read-out: EC50 L4 3D (F1)), 1.6 µg/mL (≈ 5.24 µM). In series [4] (setting [10]), the pest or weed control at 4000 g/ha is 98%. Further, the “percent control (galling reduction), 2 kg/ha rate” value in series [4] (setting [11]) is 69^a percent. In series [4] (setting [11]), the pest or weed control at 8000 g/ha turned out to be 96%. Further, in series [7], the “percent control (galling reduction), Radex 1 mg/kg” value was found to be 96%.

These data come from patent US20170367338A1, “COMPOSITIONS AND METHODS FOR IMPROVING AGRONOMIC CHARACTERISTICS OF PLANTS” (MONSANTO TECHNOLOGY LLC, priority 2014, published 2017).
